{"source": "patent US10155021B2", "about": "“Antimicrobial 4-oxoquinolizines” (Emergent Product Development Gaithersburg Inc., priority 2011, dated 2018)", "key": {"[1]": {"test_system": "A. baumannii J2", "assay": "MIC without and with sub-inhibitory polymyxin B (Example 4)", "type": "cell-based, Acinetobacter baumannii", "conditions": "for MIC +[…] PB / MIC without PB/MIC + PB: A. baumannii J2; for MIC +[…] PB: +[…] polymyxin B; for MIC without PB/MIC + PB: ratio; for MIC: Acinetobacter baumannii, J2, A. baumannii J2, without polymyxin B"}, "[2]": {"test_system": "A. baumannii A489", "assay": "MIC without and with sub-inhibitory polymyxin B (Example 4)", "type": "cell-based, Acinetobacter baumannii", "conditions": "for MIC +[…] PB / MIC without PB/MIC + PB: A. baumannii A489; for MIC +[…] PB: +[…] polymyxin B; for MIC without PB/MIC + PB: ratio; for MIC: Acinetobacter baumannii, A489, A. baumannii A489, without polymyxin B, read-out: MIC without PB"}, "[3]": {"test_system": "A. baumannii A 401", "assay": "MIC determination for Acinetobacter strains (Example 3)", "type": "cell-based", "conditions": "A401, LEV R, CIP R, AMK R, TET R"}, "[4]": {"test_system": "Acinetobacter spp. H064200250", "assay": "MIC determination for Acinetobacter strains (Example 3)", "type": "cell-based, Acinetobacter sp.", "conditions": "LEV R, CIP R, MRP R, IMP I"}, "[5]": {"test_system": "Acinetobacter sp. (H064200250)", "assay": "Preliminary MBC without and with sub-inhibitory polymyxin B (Example 4)", "type": "cell-based", "conditions": "preliminary MBC; for MBC +[…] PB: +[…] polymyxin B; for MBC: Acinetobacter, without polymyxin B, read-out: MBC without PB", "summary_of_the_method": "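Read-out: the minimum concentration at which colonies were reduced by ca. 90% relative to positive control, usually seen as isolated colonies or a clear plate. Plates had been kept 18-20 hours at 37° C beforehand.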"}, "[6]": {"test_system": "A. baumannii A401", "assay": "MIC without and with sub-inhibitory polymyxin B (Example 4)", "type": "cell-based, Acinetobacter baumannii", "conditions": "for MIC +0.06 μg/ml PB: +0.06 μg/ml polymyxin B; for MIC: Acinetobacter baumannii, A401, A baumannii A 401, without polymyxin B, read-out: MIC without PB"}, "[7]": {"test_system": "A. baumannii A329", "assay": "MIC determination for Acinetobacter strains (Example 3)", "type": "cell-based", "conditions": "LEV R, CIP R, MRP R, IMP R, AMK R, TET R"}, "[8]": {"test_system": "A. baumannii A329", "assay": "Preliminary MBC without and with sub-inhibitory polymyxin B (Example 4)", "type": "cell-based, Acinetobacter baumannii", "conditions": "for MBC: Acinetobacter baumannii, A329, A. baumannii A329, without polymyxin B, read-out: MBC without PB"}, "[9]": {"test_system": "resistant strains of A. baumannii and one strain of Acinetobacter sp.", "assay": "MIC without and with sub-inhibitory polymyxin B, whole panel / MIC ranges (Example 4; also strains not listed separately)", "type": "cell-based", "conditions": "for MIC +0.06 μg/ml PB: +0.06 μg/ml polymyxin B; for MIC without PB/MIC + PB: ratio; for MIC +[…] PB: +[…] polymyxin B; for MIC: Acinetobacter baumannii, without polymyxin B, read-out: MIC without PB"}, "[10]": {"conditions": "Acinetobacter spp. H064200250 (OXA51), 2nd experiment"}, "[11]": {"conditions": "Acinetobacter spp. H064200250, 1st experiment"}, "[12]": {"conditions": "A. baumannii A14, 1st experiment"}, "[13]": {"conditions": "A. baumannii A14, 2nd experiment, visual reading"}}, "note": "Where two headings read alike, the source gives them in different places. Marks after values point to notes of the source that are not given here."}
{"smiles": "C[C@@H](O)[C@H]1C(=O)N2C(C(=O)O)=C(SCCN=CN)C[C@H]12", "note": "[Imipenem, reference compound]", "values": [{"measurement": "MIC +[…] PB", "setting": "[1]; 1st experiment", "result": "≤0.125", "unit": "µg/mL"}, {"measurement": "MIC +[…] PB", "setting": "[1]; 2nd experiment, visual reading", "result": "≤0.125", "unit": "µg/mL"}, {"measurement": "MIC without PB/MIC + PB", "setting": "[1]; 1st experiment", "result": "≥32"}, {"measurement": "MIC without PB/MIC + PB", "setting": "[1]; 2nd experiment", "result": "≥64"}, {"measurement": "MIC", "setting": "[1]; 1st experiment, read-out: MIC without PB", "result": 4, "unit": "µg/mL"}, {"measurement": "MIC", "setting": "[1]; 2nd experiment, MIC read with alamar blue, read-out: MIC without PB, read with alamar blue", "result": 4, "unit": "µg/mL"}, {"measurement": "MIC", "setting": "[1]; 2nd experiment, visual reading, read-out: MIC without PB", "result": 8, "unit": "µg/mL"}, {"measurement": "MIC +[…] PB", "setting": "[2]; 1st experiment", "result": 2, "unit": "µg/mL"}, {"measurement": "MIC +[…] PB", "setting": "[2]; 2nd experiment, visual reading", "result": 0.25, "unit": "µg/mL"}, {"measurement": "MIC without PB/MIC + PB", "setting": "[2]; 1st experiment", "result": 64}, {"measurement": "MIC without PB/MIC + PB", "setting": "[2]; 2nd experiment", "result": 256}, {"measurement": "MIC", "setting": "[2]; 1st experiment", "result": 128, "unit": "µg/mL"}, {"measurement": "MIC", "setting": "[2]; 2nd experiment, visual reading", "result": 64, "unit": "µg/mL"}, {"measurement": "MIC", "setting": "[3]", "result": 32, "unit": "µg/mL"}, {"measurement": "MIC", "setting": "[4]", "result": 16, "unit": "µg/mL"}, {"measurement": "MBC +[…] PB", "setting": "[5]; [10]", "result": 0.5, "unit": "µg/mL"}, {"measurement": "MBC +[…] PB", "setting": "[5]; [11]", "result": "2 (0.5)* μg/ml"}, {"measurement": "MBC", "setting": "[5]; [10]", "result": 8, "unit": "µg/mL"}, {"measurement": "MBC", "setting": "[5]; [11]", "result": 16, "unit": "µg/mL"}, {"measurement": "MIC +0.06 μg/ml PB", "setting": "[6]; A baumannii A 401, 1st experiment", "result": 8, "unit": "µg/mL"}, {"measurement": "MIC +0.06 μg/ml PB", "setting": "[6]; A baumannii A 401, 2nd experiment, visual reading", "result": 4, "unit": "µg/mL"}, {"measurement": "MIC ratio without/with polymyxin B", "setting": "[6]; A baumannii A 401, ratio MIC without PB to MIC + PB, PB 0.06 μg/ml, 2nd experiment", "result": 8, "unit": "µg/mL"}, {"measurement": "MIC without PB/MIC + PB", "setting": "[6]; A baumannii A 401, ratio, PB 0.06 μg/ml, 1st experiment", "result": 4}, {"measurement": "MIC", "setting": "[6]; 1st experiment", "result": 32, "unit": "µg/mL"}, {"measurement": "MIC", "setting": "[6]; 2nd experiment, visual reading", "result": 32, "unit": "µg/mL"}, {"measurement": "MIC", "setting": "[7]", "result": 128, "unit": "µg/mL"}, {"measurement": "MBC +0.06 μg/ml PB", "setting": "[8]; A. baumannii A329, +0.06 μg/ml polymyxin B, 2nd experiment", "result": 128, "unit": "µg/mL"}, {"measurement": "MBC", "setting": "[8]; 1st experiment", "result": 128, "unit": "µg/mL"}, {"measurement": "MBC", "setting": "[8]; 2nd experiment", "result": "> 128", "unit": "µg/mL"}, {"measurement": "Range ratios MIC without PB/MIC with PB 01-10-2008 n = 8", "setting": "[9]; 1st experiment, 8 strains", "result": "1-64"}, {"measurement": "Range ratios MIC without PB/MIC with PB 14-10-2008 n = 11", "setting": "[9]; 2nd experiment, 11 strains", "result": "1-256"}, {"measurement": "MIC +0.06 μg/ml PB", "setting": "[9]; [12]", "result": 1, "unit": "µg/mL"}, {"measurement": "MIC +0.06 μg/ml PB", "setting": "[9]; [13]", "result": 1, "unit": "µg/mL"}, {"measurement": "MIC without PB/MIC + PB", "setting": "[9]; A. baumannii A14, PB 0.06 μg/ml, 1st experiment", "result": 1}, {"measurement": "MIC without PB/MIC + PB", "setting": "[9]; A. baumannii A14, PB 0.06 μg/ml, 2nd experiment", "result": 1}, {"measurement": "MIC +[…] PB", "setting": "[9]; A. baumannii NCTC 13301, 1st experiment", "result": 16, "unit": "µg/mL"}, {"measurement": "MIC +[…] PB", "setting": "[9]; A. baumannii NCTC 13301, 2nd experiment, visual reading", "result": 1, "unit": "µg/mL"}, {"measurement": "MIC without PB/MIC + PB", "setting": "[9]; A. baumannii NCTC 13301, PB […], 1st experiment", "result": 8}, {"measurement": "MIC without PB/MIC + PB", "setting": "[9]; A. baumannii NCTC 13301, PB […], 2nd experiment", "result": 128}, {"measurement": "MIC", "setting": "[9]; [12]", "result": 1, "unit": "µg/mL"}, {"measurement": "MIC", "setting": "[9]; [13]", "result": 1, "unit": "µg/mL"}, {"measurement": "MIC", "setting": "[9]; NCTC13301, A. baumannii NCTC 13301, 1st experiment", "result": 128, "unit": "µg/mL"}, {"measurement": "MIC", "setting": "[9]; NCTC13301, A. baumannii NCTC 13301, 2nd experiment, visual reading", "result": 128, "unit": "µg/mL"}]}
